Assay results reported in PubChem BioAssay (NCI).
Several values for one entry are separate records, joined by “and”; a condition that tells them apart may be missing. Identical values can stand only once.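 Following 48 hours of exposure in 96-well plates, responses at five concentrations were used to interpolate endpoints linearly. Here, GI50 denotes the concentration required for 50% inhibition of growth. TGI: total growth inhibition.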

Tests used:
Assay in all cases: DTP human tumour cell line panel, 48 h
[1] = test system: A498 renal
[2] = test system: ACHN renal
[3] = test system: HOP-92 NSCLC
[4] = test system: MOLT-4 leukemia
[5] = test system: SF-268 CNS
[6] = test system: SF-539 CNS
[7] = test system: SNB-19 CNS
[8] = test system: SNB-75 CNS
[9] = test system: SR leukemia
[10] = test system: TK-10 renal

SMILES	GI50 [1]	TGI [1]	GI50 [2] [µM]	TGI [2]	GI50 [3]	TGI [3]	GI50 [4] [µM]	TGI [4] [µM]	GI50 [5] [µM]	TGI [5]	GI50 [6] [µM]	TGI [6] [µM]	GI50 [7]	TGI [7]	GI50 [8] [µM]	TGI [8]	GI50 [9] [µM]	TGI [9] [µM]	GI50 [10]	TGI [10] [µM]
COc1cc2nc(-c3ccc(C(F)(F)F)cc3)cc(OCCCN3CCCCC3)c2cc1OC	1.85 µM	5.16 µM	1.2	14.4 µM	0.678 µM	7.08 µM	1.7	8.56	3.76	24.6 µM	2.08	8.32	2.82 µM	14.6 µM	1.96	6.86 µM	0.193	3.62	7.81 µM	24.5
COC(=O)CCCCCN=Cc1c(O)c(O)c(C(C)C)c2cc(C)c(-c3c(C)cc4c(C(C)C)c(O)c(O)c(C=NCCCCCC(=O)OC)c4c3O)c(O)c12	2.74 µM	> 32.5 µM	1.42	> 32.5 µM	0.797 µM	2.88 µM	1.05	16.5	1.51	> 32.5 µM	1.6	> 32.5	1.21 µM	> 32.5 µM	2.55	> 32.5 µM	1.09	9.61	1.15 µM	> 32.5
N#C[C@@H]1C(n2ccc(N)nc2=O)O[C@H](CO)[C@H]1O (stereo not given in full)	> 100 µM	> 100 µM	1.47	> 100 µM	7.66 µM	> 100 µM	0.107	> 100	22.3	> 100 µM	> 100	> 100	10.3 µM	> 100 µM	> 100	> 100 µM	7.31	> 100	> 100 µM	> 100
CC[C@@]1(O)C(=O)OCc2c1cc1n(c2=O)Cc2cc3cc(N)ccc3nc2-1	0.0277 µM and 0.0376 µM	0.143 µM and 0.152 µM	–	0.108 µM and 0.013 µM	0.0132 µM and < 0.025 µM	0.773 µM and 0.247 µM	0.00648	0.143	–	1.04 µM and 0.146 µM	–	0.0398	0.0169 µM and < 0.0119 µM	4.11 µM and > 29.4 µM	–	0.364 µM and 0.0446 µM	0.0134	0.0236	0.385 µM and 0.169 µM	–
CC(C)[C@H]1C(=O)N[C@@H](CCCN=C(N)N)C(=O)NCC(=O)N[C@@H](CC(=O)O)C(=O)N[C@H](Cc2ccccc2)C(=O)N1C	0.182 µM	1.05 µM	> 100	> 100 µM	0.385 µM	2.47 µM	> 100	> 100	7.07	> 100 µM	> 100	> 100	2.66 µM	> 100 µM	0.12	0.279 µM	> 100	> 100	1.43 µM	4.06
COc1ccc(Cl)cc1Nc1nc(C(F)(F)F)ccc1C(=O)N/N=C/c1cc(OC)c(OC)c(OC)c1	2.19 µM	7.65 µM	3.28	11.3 µM	2.09 µM	7.56 µM	0.642	2.82	1.32	5.75 µM	1.51	3.2	2.44 µM	19.5 µM	2.19	9.8 µM	1.19	4.19	1.76 µM	7.28
CCOC(=O)C(=O)Nc1c(C(C)C)cccc1C(C)C	–	> 100 µM	–	> 100 µM	–	> 100 µM	–	> 100	–	> 100 µM	–	> 100	–	> 100 µM	–	> 100 µM	–	> 100	–	> 100
CN1C(=O)C(Cl)(C(Cl)(Cl)S(=O)(=O)O)C(=O)c2ccccc21 (stereo not given)	–	> 100 µM	–	> 100 µM	–	> 100 µM	–	> 100	–	> 100 µM	–	> 100	–	> 100 µM	–	> 100 µM	–	> 100	–	> 100
CN(C)C(=O)O[C@@H]1CN[C@@H](C#Cc2cc3ncnc(Nc4ccc(OCc5cccc(F)c5)c(Cl)c4)c3s2)C1	5.65 µM	> 19.7 µM	18.9	> 25 µM	6.5 µM	> 25 µM	6.73	> 21.8	14.5	> 25 µM	8.58	> 25	> 25 µM	> 25 µM	> 19.4	> 25 µM	20.1	> 25	4.7 µM	> 25
NC(=O)c1ccc(C2C3=C(CCCC3=O)OC3=C2C(=O)c2ccccc2C3=O)cc1 (stereo not given)	1.36 µM	2.69 µM	1.14	2.41 µM	0.855 µM	2.91 µM	0.361	1.4	0.466	1.93 µM	0.307	1.03	1.38 µM	2.87 µM	0.277	1.22 µM	0.771	5.73	1.82 µM	3.22
O=C1NC2(CN3CCC2CC3)C(=O)N1CN(Cc1ccccc1)c1ccccc1 (stereo not given)	–	> 100 µM	–	> 100 µM	–	> 100 µM	–	> 100	–	> 100 µM	–	> 100	–	> 100 µM	–	> 100 µM	–	63.2	–	> 100
c1nnc(NCNc2nncs2)s1	–	> 100 µM	–	> 100 µM	–	> 100 µM	–	> 100	–	> 100 µM	–	> 100	–	> 100 µM	–	> 100 µM	–	> 100	–	> 100
Cc1cc(N/N=C/c2nc(-c3ccc(Cl)cc3)oc2C)c2cc(Cl)ccc2n1	11.7 µM	25.1 µM	1.95	3.78 µM	3.53 µM	16.6 µM	2.34	9.11	3.15	11.2 µM	1.88	3.46	3.95 µM	16.1 µM	1.68	3.68 µM	0.344	4.84	1.85 µM	3.48
O=C1CCCN1CC#CCN1CCCC1	> 100 µM	> 100 µM	> 100	> 100 µM	> 100 µM	> 100 µM	> 100	> 100	> 100	> 100 µM	> 100	> 100	> 100 µM	> 100 µM	> 100	> 100 µM	> 100	> 100	> 100 µM	> 100
